Test results reported in US10023565B2, “N,N′ substituted piperidinamine compounds, and preparation method and usage thereof” (Institute of Pharmacology and Toxicology Academy of …, priority 2013, dated 2018).
Where “and” joins values, the source holds several entries; their conditions need not be identical. Equal entries are not always repeated. Where two headings read alike, the source gives them in different places.

Assay: Mice pharmacokinetic evaluation (LC-MS/MS of plasma)
Format: in vivo, ICR mice
Details: for Cmax: read-out: Cmax; for Plasma concentration of active compound: listed as Mol
Experimental: Mice pharmacokinetic evaluation of the compound of Example 36 according to the method described below
ICR mice, SPS grade, male, weighed […], license number SCXK (Beijing) 2012-0001, purchased from Beijing Vital River Laboratory Animal Technology Co. Ltd.
Chromatographic conditions: Analytical column: Capcell Pak MG, 5 μm particle size, 50×2.0 mm I.D. (Shiseido Co.), connected with C18 guard column, 4×3.0 mm I.D. (PhenomenexCo., USA), column temperature 25° C., mobile phase: acetonitrile −2 mM ammonium acetate (65:35, v/v), flow rate 0.3 ml/min, internal standard: loratadine.
MS conditions: Electrospray ionization source (Turbo Ionspray source), positive ion mode detection; spray voltage 4500 V; source temperature 400° C.; nebulizer gas (NEB) 8; curtain gas (CUR) 10; collision gas (CAD) 4; scanning mode: multiple reaction monitoring (MRM), ion reactions for quantitative analysis: m/z 354.4→m/z 154.1 (Mol, CE 43 V) and m/z 383→m/z 337 (internal standard loratadine, CE 32 V), scanning time 150 msec.
To 50 μl of plasma, were added 10 μl of internal standard solution (125 ng/ml aqueous solution of loratadine), and 500 μl of n-hexane-dichloromethane-isopropanol (100:50:5, v/v/v); they were uniformly mixed, followed by vortexing for 3 min, and centrifuging for 10 min (3000 rpm); the supernatant was taken and blow dried with air streamat 40° C.; the residue was dissolved with 150 μl […], and subjected to LC-MS/MS analysis.
30 ICR male mice were randomly divided into […], five mices each group, including Mol 10 mg/kg oral group and 1.0 mg/kg tail intravenous injection group. For oral group, before administration, the animals were fasted for 12 h, with free access to water; 0.08, 0.25, 0.5, 1, 2, 4, 6, 8, 12 and 24 h after intragastrical administration, 0.1 ml of orbital venous sinus blood was taken, placed in anticoagulation tube containing heparin sodium, and subjected to 3000 g centrifugation for 15 min; and then, the plasma was taken and stored in a −20° C. refrigerator. […]
Pharmacokinetic parameters were calculated using non-compartment model of Winnonlin® software (Version 5.2.1, USA). Cmax is the measured maximum plasma concentration, Tmax is time to peak plasma concentration after oral administration, t1/2 is drug terminal elimination halflife, MRT is average residence time of drug in vivo, the area AUC0-t under plasma concentration—time curve is calculated by trapezoidal method.
Bioavailability is calculated as follows: […]
AUC: Area (h*ng/ml) under the curve; D: dose (mg/kg)

[1] = male, ICR, mouse, plasma, po, 10 mg/kg, Po 10 mg/kg, Mean ± SD, n = 3
[2] = male, ICR, mouse, plasma, po, 10 mg/kg, Po 10 mg/kg, individual mice 1-3
[3] = male, ICR, mouse, plasma, po, 10 mg/kg, oral 10 mg/kg, Mean, read-out: Plasma concentration of active compound
[4] = male, ICR, mouse, plasma, po, 10 mg/kg, oral 10 mg/kg, individual mice 1-3, read-out: Plasma concentration of active compound

**Q.** Which concentration at 0.17 h (male, ICR, mouse, plasma, iv, 1 mg/kg, intravenous 1.0 mg/kg, Mean, read-out: Plasma concentration of active compound) does the source give for `CSc1nccc(N2CCC(N(C)Cc3ccc(C#N)cc3)CC2)n1` [Example 36, N-methyl-N-(4-cyanobenzyl)-N-[1-(2-methylthiopyrimidin-4-yl)piperidin-4-yl]amine] here?
**A.** Its concentration at 0.17 h is 62.8 ng/mL.

**Q.** What about the concentration at 0.17 h (male, ICR, mouse, plasma, iv, 1 mg/kg, intravenous 1.0 mg/kg, individual mice 4-6, read-out: Plasma concentration of active compound) of the same compound?
**A.** The concentration at 0.17 h was 79.6 ng/mL.

**Q.** And the concentration at 0.5 h (male, ICR, mouse, plasma, iv, 1 mg/kg, intravenous 1.0 mg/kg, 0.5 h, Mean, read-out: Plasma concentration of active compound)?
**A.** The concentration at 0.5 h was 31.5 ng/mL.

**Q.** What about the concentration at 1 h (male, ICR, mouse, plasma, iv, 1 mg/kg, intravenous 1.0 mg/kg, 1.0 h, Mean, read-out: Plasma concentration of active compound) of the same compound?
**A.** Its concentration at 1 h is 7.02 ng/mL.

**Q.** And the concentration at 2 h (male, ICR, mouse, plasma, iv, 1 mg/kg, intravenous 1.0 mg/kg, 2.0 h, Mean, read-out: Plasma concentration of active compound)?
**A.** Its concentration at 2 h is 1.77 ng/mL.

**Q.** What about the concentration at 4 h (male, ICR, mouse, plasma, iv, 1 mg/kg, intravenous 1.0 mg/kg, 4.0 h, Mean, read-out: Plasma concentration of active compound) of the same compound?
**A.** The concentration at 4 h was 2.26 ng/mL.

**Q.** What about the concentration at 4 h (male, ICR, mouse, plasma, iv, 1 mg/kg, intravenous 1.0 mg/kg, 4.0 h, individual mice 4-6, read-out: Plasma concentration of active compound) of the same compound?
**A.** Its concentration at 4 h is 2.3 ng/mL.

**Q.** And the concentration at 6 h (male, ICR, mouse, plasma, iv, 1 mg/kg, intravenous 1.0 mg/kg, 6.0 h, Mean, read-out: Plasma concentration of active compound)?
**A.** Its concentration at 6 h is 7.53 ng/mL.

**Q.** And the concentration at 6 h (male, ICR, mouse, plasma, iv, 1 mg/kg, intravenous 1.0 mg/kg, 6.0 h, individual mice 4-6, read-out: Plasma concentration of active compound)?
**A.** Its concentration at 6 h is 7.53 ng/mL.

**Q.** What about the concentration at 8 h (male, ICR, mouse, plasma, iv, 1 mg/kg, intravenous 1.0 mg/kg, 8.0 h, Mean, read-out: Plasma concentration of active compound) of the same compound?
**A.** The concentration at 8 h was 0.84 ng/mL.

**Q.** What about the concentration at 8 h (male, ICR, mouse, plasma, iv, 1 mg/kg, intravenous 1.0 mg/kg, 8.0 h, individual mice 4-6, read-out: Plasma concentration of active compound) of the same compound?
**A.** The concentration at 8 h was 0.7 ng/mL.

**Q.** What about the bioavailability (male, ICR, mouse, plasma, oral, 10 mg/kg, Po 10 mg/kg vs IV 1.0 mg/kg, Mean ± SD, n = 3, read-out: F (absolute bioavailability)) of the same compound?
**A.** The bioavailability was 55.5 ± 10.9%.

**Q.** What about the AUC(0-inf) [1] of the same compound?
**A.** The AUC(0-inf) was 280 ± 55.8 ng·h/mL.

**Q.** What about the AUC(0-t) [1] of the same compound?
**A.** The AUC(0-t) was 275 ± 54.1 ng·h/mL.

**Q.** What about the half-life [1] of the same compound?
**A.** Its half-life is 2.72 ± 2.47 h.

**Q.** What about the Cmax [1] of the same compound?
**A.** Its Cmax is 260 ± 63.2 ng/mL.

**Q.** What about the MRT last (male, ICR, mouse, plasma, po, 10 mg/kg, Po 10 mg/kg, Mean ± SD, n = 3, read-out: MRT0-t) of the same compound?
**A.** Its MRT last is 1.58 ± 0.86 h.

**Q.** And the MRT inf (male, ICR, mouse, plasma, po, 10 mg/kg, Po 10 mg/kg, Mean ± SD, n = 3, read-out: MRT0-∞)?
**A.** Its MRT inf is 1.95 ± 1.42 h.

**Q.** And the Tmax (male, ICR, mouse, plasma, po, 10 mg/kg, Po 10 mg/kg, Mean ± SD, n = 3, read-out: Tmax)?
**A.** Its Tmax is 0.44 ± 0.49 h.

**Q.** And the AUC(0-inf) [2]?
**A.** Its AUC(0-inf) is 216 ng·h/mL.

**Q.** What about the AUC(0-t) [2] of the same compound?
**A.** The AUC(0-t) was 214 ng·h/mL.

**Q.** And the Cmax [2]?
**A.** Its Cmax is 197 ng/mL.

**Q.** What about the concentration at 0.08 h (male, ICR, mouse, plasma, po, 10 mg/kg, oral 10 mg/kg, 0.08 h, Mean, read-out: Plasma concentration of active compound) of the same compound?
**A.** The concentration at 0.08 h was 141 ng/mL.

**Q.** And the concentration at 0.25 h (male, ICR, mouse, plasma, po, 10 mg/kg, oral 10 mg/kg, 0.25 h, Mean, read-out: Plasma concentration of active compound)?
**A.** The concentration at 0.25 h was 203 ng/mL.

**Q.** What about the concentration at 0.5 h (male, ICR, mouse, plasma, po, 10 mg/kg, oral 10 mg/kg, 0.50 h, Mean, read-out: Plasma concentration of active compound) of the same compound?
**A.** Its concentration at 0.5 h is 97.5 ng/mL.

**Q.** And the concentration at 1 h (male, ICR, mouse, plasma, po, 10 mg/kg, oral 10 mg/kg, 1.0 h, Mean, read-out: Plasma concentration of active compound)?
**A.** The concentration at 1 h was 147 ng/mL.

**Q.** What about the concentration at 2 h (male, ICR, mouse, plasma, po, 10 mg/kg, oral 10 mg/kg, 2.0 h, Mean, read-out: Plasma concentration of active compound) of the same compound?
**A.** The concentration at 2 h was 23.5 ng/mL.

**Q.** What about the concentration at 4 h (male, ICR, mouse, plasma, po, 10 mg/kg, oral 10 mg/kg, 4.0 h, Mean, read-out: Plasma concentration of active compound) of the same compound?
**A.** The concentration at 4 h was 7.75 ng/mL.

**Q.** And the concentration at 6 h (male, ICR, mouse, plasma, po, 10 mg/kg, oral 10 mg/kg, 6.0 h, Mean, read-out: Plasma concentration of active compound)?
**A.** The concentration at 6 h was 7.36 ng/mL.

**Q.** What about the concentration at 8 h (male, ICR, mouse, plasma, po, 10 mg/kg, oral 10 mg/kg, 8.0 h, Mean, read-out: Plasma concentration of active compound) of the same compound?
**A.** Its concentration at 8 h is 2.71 ng/mL.

**Q.** What about the concentration at 12 h [3] of the same compound?
**A.** Its concentration at 12 h is 0.5 ng/mL.

**Q.** What about the concentration at 12 h [4] of the same compound?
**A.** The concentration at 12 h was 0.5 ng/mL.

**Q.** And the concentration at 24 h [3]?
**A.** The concentration at 24 h was 1.32 ng/mL.

**Q.** And the concentration at 24 h [4]?
**A.** The concentration at 24 h was 1.32 ng/mL.

**Q.** And the “Plasma concentration of active compound” value (oral 10 mg/kg, 0.08 h, individual mice 1-3, 10 mg/kg)?
**A.** Its value is 196.99 ng/mL and 152.22 ng/mL and 72.70 ng/mL.

**Q.** And the “Plasma concentration of active compound” value (oral 10 mg/kg, 0.25 h, individual mice 1-3, 10 mg/kg)?
**A.** Its value is 126.87 ng/mL and 158.18 ng/mL and 323.37 ng/mL.

**Q.** And the “Plasma concentration of active compound” value (oral 10 mg/kg, 0.50 h, individual mice 1-3, 10 mg/kg)?
**A.** Its value is 41.24 ng/mL and 119.50 ng/mL and 131.86 ng/mL.

**Q.** What about the “Plasma concentration of active compound” value (oral 10 mg/kg, 1.0 h, individual mice 1-3, 10 mg/kg) of the same compound?
**A.** The value was 107.54 ng/mL and 260.48 ng/mL and 71.98 ng/mL.

**Q.** What about the “Plasma concentration of active compound” value (oral 10 mg/kg, 2.0 h, individual mice 1-3, 10 mg/kg) of the same compound?
**A.** Its value is 33.99 ng/mL and 12.86 ng/mL and 23.69 ng/mL.

**Q.** What about the “Plasma concentration of active compound” value (oral 10 mg/kg, 4.0 h, individual mice 1-3, 10 mg/kg) of the same compound?
**A.** The value was 7.47 ng/mL and 1.17 ng/mL and 14.60 ng/mL.

**Q.** And the “Plasma concentration of active compound” value (oral 10 mg/kg, 6.0 h, individual mice 1-3, 10 mg/kg)?
**A.** The value was 1.28 ng/mL and 13.43 ng/mL.

**Q.** What about the “Plasma concentration of active compound” value (oral 10 mg/kg, 8.0 h, individual mice 1-3, 10 mg/kg) of the same compound?
**A.** The value was 0.54 ng/mL and 4.88 ng/mL.
